Results as given in publication PMC9276676, “Difluoromethylornithine (DFMO) and AMXT 1501 inhibit capsule biosynthesis in pneumococci” (Scientific Reports, 2022).
Where two headings read alike, the source gives them in different places.

Legend:
[1] = tested on: S. pneumoniae serotype 19F (EF3030); assay: DFMO susceptibility and growth in THY (OD600, MIC); type: cell-based, Streptococcus pneumoniae; parameters: Growthrate: unit not given here
Procedure: (§1) S. pneumoniae serotypes 4 (TIGR4), 2 (D39), 19F (EF3030) and 3 (WU2) were cultured in Todd Hewitt broth supplemented with yeast extract (THY). Supplementation with DFMO ranging from 1.1 to 549 mM was carried out in triplicate in a 96-well plate and incubated at 37 °C and 5% CO2 in a Cytation™ 5 cell imaging multi-mode reader (BioTek, Winooski, VT). The change in optical density at 600 nm (OD600) was measured every hour for 24 h and used to determine the minimum inhibitory concentration (MIC) of DFMO. The optical density data was analyzed using GrowthRates 4.0 software. To determine whether DFMO at sub-MIC is bacteriostatic or lethal to pneumococcal cells, all strains were cultured in the presence or absence of 1/2 MIC DFMO. OD600 was measured every hour and CFU were enumerated on a blood agar plate (BAP) every 2 h over an 8 h incubation period.

[2] = tested on: S. pneumoniae serotype 2 (D39); assay: DFMO susceptibility and growth in THY (OD600, MIC); type: cell-based, Streptococcus pneumoniae; parameters: Growthrate: unit not given here; conditions: D39
Procedure: as §1

[3] = tested on: S. pneumoniae serotype 3 (WU2); assay: DFMO susceptibility and growth in THY (OD600, MIC); type: cell-based, Streptococcus pneumoniae; parameters: Growthrate: unit not given here
Procedure: as §1

[4] = tested on: S. pneumoniae serotype 4 (TIGR4); assay: DFMO susceptibility and growth in THY (OD600, MIC); type: cell-based, Streptococcus pneumoniae; parameters: Growthrate: unit not given here
Procedure: as §1

[5] = target: SP_0916 (arginine decarboxylase, ADC) (Streptococcus pneumoniae, UniProt A0A0H2UPK4); assay: Inhibition of decarboxylase activities of recombinant SP_0916 (LC-MS); type: biochemical; conditions: 10 mM substrate, 15 min, 37 °C
Chain of SP_0916 (arginine decarboxylase, ADC) (A0A0H2UPK4 entry or part of it): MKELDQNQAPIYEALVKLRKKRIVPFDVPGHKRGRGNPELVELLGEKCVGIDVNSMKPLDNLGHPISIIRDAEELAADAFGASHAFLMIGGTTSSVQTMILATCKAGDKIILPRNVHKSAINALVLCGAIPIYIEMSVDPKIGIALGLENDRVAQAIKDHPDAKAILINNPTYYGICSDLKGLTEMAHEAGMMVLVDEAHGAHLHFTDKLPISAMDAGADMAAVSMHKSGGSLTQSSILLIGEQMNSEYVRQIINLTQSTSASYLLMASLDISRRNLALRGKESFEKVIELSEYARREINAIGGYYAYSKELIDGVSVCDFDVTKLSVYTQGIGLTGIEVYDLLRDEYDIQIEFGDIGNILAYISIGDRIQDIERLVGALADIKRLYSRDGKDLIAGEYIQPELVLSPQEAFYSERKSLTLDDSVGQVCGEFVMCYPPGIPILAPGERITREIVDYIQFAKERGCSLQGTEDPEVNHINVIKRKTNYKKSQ
Excerpt: We determined the impact of DFMO (ODC/ADC inhibitor) and α-difluoromethylarginine (DFMA, an ADC inhibitor) on the decarboxylase activities of SP_0916. BL21(DE3) cells expressing recombinant His tag SP_0916 were lysed with B-PER reagent buffer (Thermo Fisher Scientific, Waltham, MA, USA), lysate separated by loading unto HisPur Cobalt Spin Column (Thermo Fisher Scientific, Waltham, MA, USA), desalted using Sephadex G-25 PD-10 column (GE Healthcare, Chicago, IL, USA), and protein concentration estimated using the Pierce BCA Protein Assay kit (Thermo Fisher Scientific, Waltham, MA, USA).
SP_0916-encoded protein (0.926 µmol L^−1) was mixed with 10 mM substrate (arginine, lysine or ornithine) in the reaction mixture (500 µL reaction volume, 50 mM Tris–HCl, pH 8.0) that contains 2.5 mM MgSO4 and 0.6 mM PLP. DFMO was diluted in water to 3–900 mM and added to the reaction mixture after 5 min preincubation at 37 °C in the dark. DFMA stock was made in a similar manner but was diluted in water to 0.3–1000 µM. The enzyme and inhibitor were incubated at 37 °C for 15 min in the dark and the reaction terminated with 0.3 M perchloric acid. After incubation on ice for 15 min, the samples were neutralized with 25 µL of 10 N KOH and extracted with 1 mL of 1-butanol. The organic layer was dried under nitrogen gas and reconstituted with 100 µL of water containing Spermidine-d8 and Glucose-d7 as an internal standard. Analysis of the extracts was performed on a Surveyor LC–MS system. 5 µL of reconstitution was injected to the LC–MS system for detection of the products (agmatine, cadaverine or putrescine). We used internal standards to normalize and determine the peak intensity (area ratio) for each metabolite detected. Enzyme activity without inhibitor is referred to as a control activity. All experiments were performed in triplicate. The concentration of inhibitor that inhibited 50% of the control activity (IC50 value) was determined by varying the concentration of the indicated DFMO or DFMA and measuring the decarboxylase activity. Sigma Plot v. 12 was used to fit the curve through the points and IC50 values were interpolated from the fitted curve.

NCCC[C@](N)(C(=O)O)C(F)F [DFMO, α-difluoromethylornithine]
difference in growth rate in presence or absence of DFMO (GrowthRates software) [1]: did not identify any significant differences
Growthrate ([1]; DFMO 0.2 µg/µL): 0.035
Max OD ([1]; DFMO 0.2 µg/µL): 1.413
Growthrate ([1]; DFMO 0.4 µg/µL): 0.021
Max OD ([1]; DFMO 0.4 µg/µL): 1.458
Growthrate ([1]; DFMO 0.8 µg/µL): 0.037
Max OD ([1]; DFMO 0.8 µg/µL): 1.485
Growthrate ([1]; DFMO 1.6 µg/µL): 0.037
Max OD ([1]; DFMO 1.6 µg/µL): 1.495
Growthrate ([1]; DFMO 3.1 µg/µL): 0.036
Max OD ([1]; DFMO 3.1 µg/µL): 1.517
Growthrate ([1]; DFMO 6.3 µg/µL): 0.035
Max OD ([1]; DFMO 6.3 µg/µL): 1.538
Growthrate ([1]; DFMO 12.5 µg/µL): 0.030
Max OD ([1]; DFMO 12.5 µg/µL): 1.513
Growthrate ([1]; DFMO 25.0 µg/µL): 0.040
Max OD ([1]; DFMO 25.0 µg/µL): 1.319
Growthrate ([1]; DFMO 50.0 µg/µL): 0.000
Max OD ([1]; DFMO 50.0 µg/µL): 0.000
Growthrate ([1]; DFMO 100.0 µg/µL): 0.000
Max OD ([1]; DFMO 100.0 µg/µL): 0.000
difference in growth rate in presence or absence of DFMO (GrowthRates software) [2]: did not identify any significant differences
growth curve versus control ([2]; 1/2 MIC DFMO (137 mM)): longer lag phase and a lower maximal O.D
Growthrate ([2]; DFMO 0.2 µg/µL): 0.025
Max OD ([2]; DFMO 0.2 µg/µL): 1.555
Growthrate ([2]; DFMO 0.4 µg/µL): 0.019
Max OD ([2]; DFMO 0.4 µg/µL): 1.573
Growthrate ([2]; DFMO 0.8 µg/µL): 0.018
Max OD ([2]; DFMO 0.8 µg/µL): 1.615
Growthrate ([2]; DFMO 1.6 µg/µL): 0.040
Max OD ([2]; DFMO 1.6 µg/µL): 1.648
Growthrate ([2]; DFMO 3.1 µg/µL): 0.039
Max OD ([2]; DFMO 3.1 µg/µL): 1.642
Growthrate ([2]; DFMO 6.3 µg/µL): 0.037
Max OD ([2]; DFMO 6.3 µg/µL): 1.647
Growthrate ([2]; DFMO 12.5 µg/µL): 0.036
Max OD ([2]; DFMO 12.5 µg/µL): 1.613
Growthrate ([2]; DFMO 25.0 µg/µL): 0.029
Max OD ([2]; DFMO 25.0 µg/µL): 0.985
Growthrate ([2]; DFMO 50.0 µg/µL): 0.000
Max OD ([2]; DFMO 50.0 µg/µL): 0.000
Growthrate ([2]; DFMO 100.0 µg/µL): 0.000
Max OD ([2]; DFMO 100.0 µg/µL): 0.000
difference in growth rate in presence or absence of DFMO (GrowthRates software) [3]: did not identify any significant differences
growth curve versus control ([3]; 1/2 MIC DFMO (137 mM)): longer lag phase and a lower maximal O.D
Growthrate ([3]; DFMO 0.2 µg/µL): 0.046
Max OD ([3]; DFMO 0.2 µg/µL): 0.497
Growthrate ([3]; DFMO 0.4 µg/µL): 0.047
Max OD ([3]; DFMO 0.4 µg/µL): 0.509
Growthrate ([3]; DFMO 0.8 µg/µL): 0.047
Max OD ([3]; DFMO 0.8 µg/µL): 0.548
Growthrate ([3]; DFMO 1.6 µg/µL): 0.046
Max OD ([3]; DFMO 1.6 µg/µL): 0.575
Growthrate ([3]; DFMO 3.1 µg/µL): 0.050
Max OD ([3]; DFMO 3.1 µg/µL): 0.650
Growthrate ([3]; DFMO 6.3 µg/µL): 0.048
Max OD ([3]; DFMO 6.3 µg/µL): 0.652
Growthrate ([3]; DFMO 12.5 µg/µL): 0.048
Max OD ([3]; DFMO 12.5 µg/µL): 0.696
Growthrate ([3]; DFMO 25.0 µg/µL): 0.046
Max OD ([3]; DFMO 25.0 µg/µL): 0.303
Growthrate ([3]; DFMO 50.0 µg/µL): 0.000
Growthrate ([3]; DFMO 100.0 µg/µL): 0.000
difference in growth rate in presence or absence of DFMO (GrowthRates software) [4]: did not identify any significant differences
Growthrate ([4]; DFMO 0.2 µg/µL): 0.055
Max OD ([4]; DFMO 0.2 µg/µL): 1.583
Growthrate ([4]; DFMO 0.4 µg/µL): 0.056
Max OD ([4]; DFMO 0.4 µg/µL): 1.619
Growthrate ([4]; DFMO 0.8 µg/µL): 0.056
Max OD ([4]; DFMO 0.8 µg/µL): 1.657
Growthrate ([4]; DFMO 1.6 µg/µL): 0.057
Max OD ([4]; DFMO 1.6 µg/µL): 1.695
Growthrate ([4]; DFMO 3.1 µg/µL): 0.056
Max OD ([4]; DFMO 3.1 µg/µL): 1.654
Growthrate ([4]; DFMO 6.3 µg/µL): 0.055
Max OD ([4]; DFMO 6.3 µg/µL): 1.635
Growthrate ([4]; DFMO 12.5 µg/µL): 0.056
Max OD ([4]; DFMO 12.5 µg/µL): 1.560
Growthrate ([4]; DFMO 25.0 µg/µL): 0.052
Max OD ([4]; DFMO 25.0 µg/µL): 1.280
Growthrate ([4]; DFMO 50.0 µg/µL): 0.000
Max OD ([4]; DFMO 50.0 µg/µL): 0.000
Growthrate ([4]; DFMO 100.0 µg/µL): 0.000
Max OD ([4]; DFMO 100.0 µg/µL): 0.000
IC50 ([5]; DFMO IC50, ornithine to putrescine): 26.6 ± 4.1 mM
IC50 ([5]; arginine to agmatine, read-out: DFMO IC50): 75.1 ± 5.5 mM
IC50 ([5]; lysine to cadaverine, read-out: DFMO IC50): 8.2 ± 0.2 mM
